Experimental data: PubChem BioAssay (NCI)
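48-hour exposure; five concentrations; linearly interpolated endpoints. TGI marks complete inhibition of growth.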

Legend:
Assay in all cases: NCI anticancer screen, dose series, 48 h
HCT-15 colon = test system: HCT-15 colon
HT29 colon = test system: HT29 colon
MDA-N = test system: MDA-N
NCI-H460 lung = test system: NCI-H460 lung
PC-3 prostate = test system: PC-3 prostate
SF-295 CNS = test system: SF-295 CNS
SK-OV-3 ovarian = test system: SK-OV-3 ovarian
SNB-75 CNS = test system: SNB-75 CNS
UACC-257 melanoma = test system: UACC-257 melanoma
BT-549 breast = test system: BT-549 breast

CCC(c1ccc(OC)cc1)C1NC(=S)NC1=O (stereo unspecified)
TGI (HCT-15 colon): > 50 µM
TGI (HT29 colon): > 50 µM
TGI (MDA-N): > 50 µM
TGI (NCI-H460 lung): > 50 µM
TGI (PC-3 prostate): > 50 µM
TGI (SF-295 CNS): > 50 µM
TGI (SK-OV-3 ovarian): > 50 µM
TGI (SNB-75 CNS): > 50 µM
TGI (UACC-257 melanoma): > 50 µM

CC(C)(CN1CCCCC1)C(=O)CC(SCCN)c1ccc(Cl)cc1 (stereo unspecified)
TGI (HCT-15 colon): 4.53 µM
TGI (HT29 colon): 5.07 µM
TGI (NCI-H460 lung): 5.43 µM
TGI (SF-295 CNS): 12.4 µM
TGI (SK-OV-3 ovarian): 7.83 µM
TGI (SNB-75 CNS): 5.59 µM
TGI (UACC-257 melanoma): 7.41 µM

C#C[C@]1(O)[C@@H](CO)O[C@@H](n2ccc(N)nc2=O)[C@@H]1O
TGI (BT-549 breast): 22.2 µM
TGI (HCT-15 colon): > 100 µM
TGI (MDA-N): 0.175 µM
TGI (NCI-H460 lung): 0.508 µM
TGI (PC-3 prostate): 0.762 µM
TGI (SF-295 CNS): 3.07 µM
TGI (SK-OV-3 ovarian): > 100 µM
TGI (SNB-75 CNS): 1.82 µM
TGI (UACC-257 melanoma): 8.03 µM

CCOC(=O)C1(C#N)C(C#N)(C#N)C1(C#N)C#N
TGI (BT-549 breast): > 100 µM
TGI (HCT-15 colon): > 100 µM
TGI (HT29 colon): > 100 µM
TGI (MDA-N): > 100 µM
TGI (NCI-H460 lung): > 100 µM
TGI (PC-3 prostate): > 100 µM
TGI (SF-295 CNS): > 100 µM
TGI (SK-OV-3 ovarian): > 100 µM
TGI (UACC-257 melanoma): > 100 µM

NC(Cc1ccccc1)c1nn[nH]n1 (stereo unspecified)
TGI (BT-549 breast): > 100 µM
TGI (HCT-15 colon): > 100 µM
TGI (HT29 colon): > 100 µM
TGI (MDA-N): > 100 µM
TGI (NCI-H460 lung): > 100 µM
TGI (PC-3 prostate): > 100 µM
TGI (SF-295 CNS): > 100 µM
TGI (SK-OV-3 ovarian): > 100 µM
TGI (SNB-75 CNS): > 100 µM
TGI (UACC-257 melanoma): > 100 µM

CN(C)CC1CCCCCCCCCCCCC(CN(C)C)C1=O (stereo unspecified)
TGI (HCT-15 colon): 34.8 µM
TGI (HT29 colon): 18.5 µM
TGI (NCI-H460 lung): 27.6 µM
TGI (SF-295 CNS): 29.6 µM
TGI (SK-OV-3 ovarian): 32.3 µM
TGI (SNB-75 CNS): 24.6 µM
TGI (UACC-257 melanoma): 29.9 µM

CC(=O)OCC1OC(OC(C)=O)C(Nc2ncc(-c3ccc(C)cc3)s2)C(OC(C)=O)C1OC(C)=O (stereo unspecified)
TGI (BT-549 breast): 36.7 µM
TGI (HCT-15 colon): 60 µM
TGI (HT29 colon): 56.1 µM
TGI (MDA-N): 35.3 µM
TGI (NCI-H460 lung): 40.7 µM
TGI (PC-3 prostate): 45.3 µM
TGI (SF-295 CNS): 76.3 µM
TGI (SK-OV-3 ovarian): > 100 µM
TGI (SNB-75 CNS): 37.6 µM
TGI (UACC-257 melanoma): 49.1 µM

O=C1CCCC2=C1CC1=C(CCCC1=O)N2c1ccc([N+](=O)[O-])cc1
TGI (BT-549 breast): > 100 µM
TGI (HCT-15 colon): > 100 µM
TGI (HT29 colon): > 100 µM
TGI (NCI-H460 lung): > 100 µM
TGI (PC-3 prostate): > 100 µM
TGI (SK-OV-3 ovarian): > 100 µM
TGI (SNB-75 CNS): > 100 µM

N#CCC1C2CC3C(C2=O)C13 (stereo unspecified)
TGI (HCT-15 colon): > 100 µM
TGI (HT29 colon): > 100 µM
TGI (MDA-N): > 100 µM
TGI (NCI-H460 lung): > 100 µM
TGI (PC-3 prostate): > 100 µM
TGI (SF-295 CNS): > 100 µM
TGI (SK-OV-3 ovarian): > 100 µM
TGI (SNB-75 CNS): > 100 µM
TGI (UACC-257 melanoma): > 100 µM

COc1ccc(NS(=O)c2c(C)cc(C)cc2C)cc1 (stereo unspecified)
TGI (BT-549 breast): > 100 µM
TGI (HCT-15 colon): > 100 µM
TGI (HT29 colon): > 100 µM
TGI (MDA-N): > 100 µM
TGI (NCI-H460 lung): > 100 µM
TGI (SF-295 CNS): > 100 µM
TGI (UACC-257 melanoma): > 100 µM

O=[N+]([O-])c1ccc(CN=C2NNS(=O)(=O)c3ccccc32)cc1
TGI (HCT-15 colon): > 100 µM
TGI (HT29 colon): > 100 µM
TGI (NCI-H460 lung): > 100 µM
TGI (SF-295 CNS): > 100 µM
TGI (UACC-257 melanoma): > 100 µM

COC1=CC(=O)c2c(cc3c(c2O)-c2c(OC)cc4cc5c(c(O)c4c2OC(=O)CC(C)(O)C3)C(=O)CC(C)(O)C5)C1=O (stereo unspecified)
TGI (HCT-15 colon): 4.36 µM
TGI (HT29 colon): 6.59 µM
TGI (NCI-H460 lung): 5.24 µM
TGI (SF-295 CNS): 3.48 µM
TGI (SK-OV-3 ovarian): 7.47 µM
TGI (SNB-75 CNS): 3.51 µM
TGI (UACC-257 melanoma): 5.34 µM

O=C(Cc1ccccc1)NN1C(=O)C(Cl)C1c1cccc([N+](=O)[O-])c1 (stereo unspecified)
TGI (HCT-15 colon): > 100 µM
TGI (HT29 colon): > 20 µM
TGI (NCI-H460 lung): > 100 µM
TGI (SF-295 CNS): > 100 µM
TGI (SK-OV-3 ovarian): > 100 µM
TGI (UACC-257 melanoma): > 100 µM

O=C1Oc2cc3c(c4cccc1c24)OCN(c1ccccc1)C3
TGI (HCT-15 colon): > 100 µM
TGI (HT29 colon): > 100 µM
TGI (NCI-H460 lung): > 100 µM
TGI (SF-295 CNS): > 100 µM
TGI (SK-OV-3 ovarian): > 100 µM
TGI (SNB-75 CNS): > 100 µM
TGI (UACC-257 melanoma): > 100 µM

CCc1ccc(Nc2cc(=O)n(C)c(SCc3ccccc3)n2)cc1
TGI (BT-549 breast): > 100 µM
TGI (HCT-15 colon): > 100 µM
TGI (HT29 colon): 60.4 µM
TGI (MDA-N): > 100 µM
TGI (SF-295 CNS): > 100 µM
TGI (SK-OV-3 ovarian): > 100 µM
TGI (SNB-75 CNS): > 100 µM
TGI (UACC-257 melanoma): > 100 µM

COC(=O)CC(CNC(=O)OCc1ccccc1)OCc1ccc(OC)cc1 (stereo unspecified)
TGI (BT-549 breast): > 100 µM
TGI (HCT-15 colon): > 100 µM
TGI (MDA-N): > 100 µM
TGI (NCI-H460 lung): > 100 µM
TGI (PC-3 prostate): > 100 µM
TGI (SF-295 CNS): > 100 µM
TGI (SK-OV-3 ovarian): > 100 µM
TGI (SNB-75 CNS): > 100 µM
TGI (UACC-257 melanoma): > 100 µM

CN1c2ccccc2C(=O)NC12CCNCC2
TGI (HT29 colon): > 100 µM
TGI (NCI-H460 lung): > 100 µM
TGI (SF-295 CNS): > 100 µM
TGI (SK-OV-3 ovarian): > 100 µM
TGI (SNB-75 CNS): > 100 µM
TGI (UACC-257 melanoma): > 100 µM

O=C(CCN1CCC(CCO)CC1)Nc1ccc2c(c1)C(=O)c1ccc(NC(=O)CCN3CCC(CCO)CC3)cc1C2=O
TGI (HCT-15 colon): > 100 µM
TGI (HT29 colon): > 100 µM
TGI (NCI-H460 lung): 15.5 µM
TGI (SF-295 CNS): > 100 µM
TGI (SK-OV-3 ovarian): 46.3 µM
TGI (SNB-75 CNS): 64.2 µM
TGI (UACC-257 melanoma): > 100 µM

Cc1ccc(C(=O)N2CCCCC2)cc1N=NN(C)C
TGI (HCT-15 colon): > 100 µM
TGI (HT29 colon): > 100 µM
TGI (NCI-H460 lung): > 100 µM
TGI (SF-295 CNS): > 100 µM
TGI (SNB-75 CNS): > 100 µM
TGI (UACC-257 melanoma): > 100 µM

O=C1CC(C(OCc2ccccc2)C(OCc2ccccc2)C(OCc2ccccc2)C(COCc2ccccc2)OCc2ccccc2)CC(=O)N1 (stereo unspecified)
TGI (BT-549 breast): > 100 µM
TGI (HCT-15 colon): > 100 µM
TGI (HT29 colon): > 100 µM
TGI (MDA-N): > 100 µM
TGI (NCI-H460 lung): > 100 µM
TGI (PC-3 prostate): > 100 µM
TGI (SF-295 CNS): > 100 µM
TGI (SNB-75 CNS): > 100 µM
TGI (UACC-257 melanoma): > 100 µM

CC(C)CC(NC=O)C(=O)NC(Cc1ccccc1)NC(=O)CNC(=O)C(C)NC(=O)C(N)Cc1ccc(O)cc1 (stereo unspecified)
TGI (BT-549 breast): > 100 µM
TGI (HCT-15 colon): > 100 µM
TGI (HT29 colon): > 100 µM
TGI (MDA-N): > 100 µM
TGI (NCI-H460 lung): > 100 µM
TGI (PC-3 prostate): > 100 µM
TGI (SF-295 CNS): > 100 µM
TGI (SK-OV-3 ovarian): > 100 µM
TGI (SNB-75 CNS): > 100 µM

S=C(Nc1ccc2c(c1)oc1ccccc12)c1cccs1
TGI (BT-549 breast): > 100 µM
TGI (HCT-15 colon): > 100 µM
TGI (HT29 colon): > 100 µM
TGI (MDA-N): > 100 µM
TGI (PC-3 prostate): > 100 µM
TGI (SF-295 CNS): > 100 µM
TGI (SK-OV-3 ovarian): > 100 µM
TGI (UACC-257 melanoma): > 100 µM

O=P(CCOc1ccccc1OCCP(=O)(c1ccccc1)c1ccc2c(c1)OCCOCCOCCOCCO2)(c1ccccc1)c1ccc2c(c1)OCCOCCOCCOCCO2 (stereo unspecified)
TGI (HCT-15 colon): > 100 µM
TGI (HT29 colon): > 100 µM
TGI (NCI-H460 lung): > 100 µM
TGI (SF-295 CNS): > 100 µM
TGI (SK-OV-3 ovarian): > 100 µM
TGI (SNB-75 CNS): > 100 µM
TGI (UACC-257 melanoma): > 100 µM

CCOC(=O)C1=CNC(C(=O)OCC)C1c1cccn1-c1ccccc1 (stereo unspecified)
TGI (BT-549 breast): > 100 µM
TGI (HCT-15 colon): > 100 µM
TGI (HT29 colon): 50.5 µM
TGI (MDA-N): 57.4 µM
TGI (NCI-H460 lung): > 100 µM
TGI (PC-3 prostate): 71.3 µM
TGI (SF-295 CNS): 74.5 µM
TGI (SNB-75 CNS): 65.4 µM
TGI (UACC-257 melanoma): > 100 µM

O=C(O)C1=CN(c2ccncc2)C(c2ccco2)=CC1c1ccccc1[N+](=O)[O-] (stereo unspecified)
TGI (BT-549 breast): 26.9 µM
TGI (HCT-15 colon): 4.75 µM
TGI (HT29 colon): 6.18 µM
TGI (NCI-H460 lung): 36.3 µM
TGI (PC-3 prostate): 28 µM
TGI (SF-295 CNS): 26.2 µM
TGI (SK-OV-3 ovarian): 33.6 µM
TGI (SNB-75 CNS): 22.1 µM
TGI (UACC-257 melanoma): 5.35 µM
